# Results taken from patent US20260373165A1, “PHARMACEUTICAL COMBINATIONS AND COMPOSITIONS, AND METHODS OF USE THEREOF” (SHENZHEN HIGHTIDE BIOPHARMACEUTICAL LTD., priority 2022, published 2026).
# Key:
# [1] = Example 1: food intake within 24 h; format: in vivo, mouse (C57BL/6J male, 60% HFD DIO); conditions: during administration period, vs model control group
# Source text: (§1) After 5-week-old C57BL/6J male mice were acclimatized for 1 week, the weight of each mouse was weighed, and the mice were randomly divided into a control group and a model group by taking the weight as a main index, where 12 mice in the control group were fed with common feed (CD), and the mice in the remaining model group were fed with 60% high-fat feed (60% HFD) for 10-12 weeks to construct a DIO obesity model, with the average body weight being not less than 40 g. The mice fed with 60% HFD were grabbed and acclimatized with a solvent for 3 days, where the acclimatization with a solvent was performed by oral gavage of 0.5% CMC-Na, twice daily.
# The food intake, the body weight, the body fat ratio, and the insulin level of the mice were respectively measured, followed by fasting blood glucose level, and the mice were randomly grouped according to Table 3 by taking the body weight as an index, and the remaining ungrouped mice were euthanized. After grouping, each group of mice was administered according to Table 3, the day of administration was defined as DO, and the administration volume of each drug was determined based on the results obtained by the calculation of 5 μL/g× mouse body weight (g). […]
# [2] = Example 1: lean mass by MRI after 25 days; format: in vivo, mouse (C57BL/6J male, 60% HFD DIO); conditions: for lean mass (in words): after 25 days, relative to model control group G2; for Body weight / Lean (lean mass) / Lean ratio: mean, HTD1801 200 mpk, empagliflozin 10 mpk in last 2 weeks (300/15 mpk before); for Body weight: after 25 days of administration (Table 7); for Lean (lean mass) / Lean ratio: after 25 days of administration
# Source text: as §1
# The food intake, the body weight, the body fat ratio, and the insulin level of the mice were respectively measured, followed by fasting blood glucose level, and the mice were randomly grouped according to Table 3 by taking the body weight as an index, and the remaining ungrouped mice were euthanized. After grouping, each group of mice was administered according to Table 3, the day of administration was defined as DO, and the administration volume of each drug was determined based on the results obtained by the calculation of 5 μL/g× mouse body weight (g).
# For the combined administration group, the total administration volume was the sum of the administration volumes of two single drugs, and the administration sequence and the administration time were kept consistent at each administration. The mice were continuously fed with high-fat feed during the administration period until the administration was finished. During administration, 2 food intakes were measured per week (difference in feed weights at an interval of 24 h was measured); each group of mice was weighed once daily; postprandial blood glucose levels were measured weekly; blood was collected from the tail tip on day 6 and day 20, respectively, so as to measure fasting blood glucose levels once (blood was collected after fasting from 8:00 am to […]); on day 25 of administration, the body fat ratio and the lean mass of each group of mice were measured by MRI (the measurement period was kept consistent with that before grouping); after 4 weeks of administration intervention (day 28), each group of mice was fasted for 6 h and subjected to OGTT (0 min, 15 min, 30 min, 60 min, 90 min, 120 min) to detect their blood glucose levels, and meanwhile subjected to blood sampling via submaxillary vein (0 min, 15 min, 30 min, about 30 μL of blood sampled each time), and then the blood plasma was separated for detecting the insulin level by ELISA, where the separated blood plasma was more than 10 μL; the next day (D29) at the end of administration was set as the test endpoint, and the mice were fasted for 6 h in the morning and subjected to fasting blood glucose level measurement; subsequently, the mice were euthanized with CO2, blood was collected from the heart of each mouse for analysis, and each group of mice was dissected; the liver and subcutaneous, epididymal and mesenteric fat was collected, photographed and weighed, respectively.
# After 25 days of administration, the body weight, the Lean weight and the lean ratio of each animal in groups G1 to G5 were measured and averaged for each group, and the results are shown in Table 7 below, FIG. 9 and FIG. 10.
SMILES,food intake within 24 h (in words) [1],lean mass (in words) [2],Body weight [2] [g],Lean (lean mass) [2] [g],Lean ratio [2] [%]
"COc1ccc2cc3[n+](cc2c1OC)CCc1cc2c(cc1-3)OCO2.C[C@H](CCC(=O)[O-])[C@H]1CC[C@H]2[C@@H]3[C@@H](O)C[C@@H]4C[C@H](O)CC[C@]4(C)[C@H]3CC[C@]12C [HTD1801, berberine ursodeoxycholate]",lower than the food intake for the model control group,increased,40.10,7.50,19.02
"OC[C@H]1O[C@@H](c2ccc(Cl)c(Cc3ccc(O[C@H]4CCOC4)cc3)c2)[C@H](O)[C@@H](O)[C@@H]1O [Empagliflozin, empagliflozin]",comparable to that of the model control group,decreased,47.53,5.17,10.92
